For assay [1], the system named is α-1,4-glucan lyase. As to the kind of experiment: Substrate specificity of α-1,4-glucan lyase (release of 1,5-anhydrofructose, DNS method, 15 min). It is filed as biochemical, Gracilariopsis lemaneiformis. Here is the method: When amylopectin was used as a substrate, the activity reached maximum 8 mg ml^-1 and then decreased slightly at 20 mg ml^-1. The same results were obtained with soluble starch and maltoheptaose. When maltotriose and maltose were used as substrates, the activity reached maximum at 2 mg ml^-1 and 6 mg ml^-1, respectively. Substrate inhibition became evident at higher concentrations, especially in the case of maltotriose. […] Generally, the inhibition degree decreased with the increase in DP number (Degree of Polymerization). When the activity measured at 10 mg ml^-1 was compared at 2 mg ml^-1 and 4 mg ml^-1, substrate inhibition could be clearly seen among the maltosaccharides of DP 3-5. In maltohexaose, the substrate inhibition was very low and was none in maltoheptaose. Among the maltosaccharides, maltotetraose and maltopentaose were the poorest substrates.
With PNPG1 (p-nitrophenyl-α-D-glucoside), the artificial substrate of α-glucosidase, reaction rate was the lowest.
Substrate Specificity of α-1,4-Glucan lyase.
The concentration of various substrates in the reaction mixture
was 10 mg ml^-1 except PNPG1, PNPG2, PNPG7, which was 2 mM.
The incubation time was 15 min. The degrading rate of maltoheptaose
was 84 μmol min^-1. mg^-1 protein.
The reaction mixture for the assay of α-1,4-glucan lyase was composed of 240 μl 62.5 mM Mops-NaOH containing 6 mg soluble starch (pH 6.2), the enzyme preparation and distilled water to a final volume of 300 μl. The reaction was carried out at 30° C. for 10-30 min. Liberated 1,5-anhydrofructose was determined by monitoring the absorbance at 546 nm after the addition of 3,5-dinitrosalicylic acid reagent. Soluble starch in the reaction mixture may be replaced by other substrates and the final substrate concentration may be varied as indicated in the text. The reaction time and enzyme concentration used in enzyme activity assay have been chosen to ensure the linearity of the reaction rate. One unit of α-1,4-glucan lyase activity is defined as the amount of enzyme which liberates 1μmol of 1,5-anhydrofructose min^-1 under the conditions described above.

Assay [2] deals with α-1,4-glucan lyase. Kind of assay: Reaction mode: complete degradation of substrates by the lyase and final products. The settings on record: enzyme 6 μg protein per ml, 30° C. Type of assay: biochemical, Gracilariopsis lemaneiformis. Here is the method:
In an enzyme concentration of 6 μg protein per ml, at 30° C., the time needed for a complete degradation of 1% maltose solution was 1 h, for 2% maltose solution, 3 h, for 5% maltose solution, 10-24 h, for 2% maltoheptaose, 10-24 h. This is in sharp contrast to many polysaccharides' depolymerization enzymes, whose reaction stops with the accumulation of products or with the decrease in substrate size.
When maltoheptaose was used as a substrate, the final products are 1,5-anhydrofructose and glucose and their ratio is 6:1. The intermediate products are a mixture of maltosaccharides with a DP number between 2-6 during the process of the reaction. With the increase of reaction time, the DP number of the maltosaccharides decreased and finally all the maltosaccharides disappeared. When maltose was used as a substrate, the ratio of 1,5-anhydrofructose to glucose was 1:1. With the increase of DP number, the yield of glucose decreased, while the yield of 1,5-anhydrofructose increased. When a linear chain of a α-1,4-glucan is long enough, the yield of 1,5-anhydrofructose can be nearly 100%.

The subject of assay [3] is α-1,4-glucan lyase. Kind of assay: Elution of α-1,4-glucan lyase from the starch column by glucans. The conditions noted are these: glucan 8 mg ml^-1; column 1 ml, 5 ml eluate; recovery with amylopectin = 100%. Type of assay: binding, Gracilariopsis lemaneiformis. Here is the method:
In these experiments, as much as 5 times of the column volume was collected. At high pH, for example, 50 mM bicine-NaOH (pH 8.2), the binding of the enzyme onto the starch column was loose and it was eluted by subsequent washing with the same buffer. Neither ConA-Sepharose nor cycloheptaamylose-Sepharose 6B was effective for the purification of the enzyme because of low recovery.
The efficiency of various glucans (8 mg ml^-1) on the elution of
α-1,4-glucan lyase from the starch column. The column volume
was 1 ml and 5 ml eluate was pooled. The recovery of
α-1,4-glucan lyase eluted by amylopectin was used as 100%.
Gracilariopsis lemaneiformis (originally collected from China), 30 g, was sampled directly from the culture cylinder and was rinsed briefly with deionized water and blotted dry with paper tissue. The following operations were carried out at 0°-4° C. The thalli were cut to pieces with scissors and pulverized under liquid nitrogen. To 1 g alga powder was added 3 volumes of buffer A (50 mM citrate-NaOH, pH 6.6), filtered through two-layer cloth and centrifuged at 36,600×g for 10 min. The supernatant (cell-free extract) was loaded onto a starch column (4.1×1.5 cm) pre-equilibrated with buffer A. After loading, the column was extensively washed with 4 volumes of buffer A, volumes of buffer A containing 1M NaCl, 1 volume of buffer A, 1 volume of buffer B (50 mM imidazole-HCl, pH 6.6) in a flow speed of 24 ml h^-1. α-1,4-Glucan lyase was eluted with buffer B containing 10 mg ml^-1 amylopectin in a fraction size of 3.5 ml. To separate α-1,4-glucan lyase from the amylopectin, the active fractions of the eluate were pooled and applied onto a Q-Sepharose column (2.6×5 cm). The column was pre-equilibrated and later washed with buffer B. α-1,4-Glucan lyase was eluted with buffer B containing 0.7M NaCl. Active fractions were pooled and concentrated on a Centriprep CP30 (Amicon, USA) with a molecule weight cutoff of 30,000 and applied to a Sephacryl S-200 column (2.6×80 cm) pre-equilibrated and eluted with buffer A containing 0.2M NaCl. The flow speed was 60 ml h^-1 with a fraction size of 3.5 ml per tube. Active fractions were collected and concentrated again by using centriprep CP30.

The results in this text go back to patent US5695970A, “Glucan lyase producing 1,5-anhydrofructose” (priority 1992, dated 1997).

As for `OC[C@H]1O[C@H](O[C@H]2[C@H](O)[C@@H](O)[C@H](O)O[C@@H]2CO)[C@H](O)[C@@H](O)[C@@H]1O` [Maltose, maltose], the “substrate concentration at which the activity reached maximum” value in the assay with α-1,4-glucan lyase [1] was 6 mg/mL. The substrate inhibition entry in the assay on α-1,4-glucan lyase [1] (higher substrate concentrations, 10 mg ml^-1 compared with 2 and 4 mg ml^-1) was “showed substrate inhibition”. In addition, the “Activity (% of Maltoheptaose)” value in the assay on α-1,4-glucan lyase [1] (substrate 10 mg ml^-1, incubation 15 min) turned out to be 66.7%. Besides, the “time needed for a complete degradation” value is 1 h in the assay with α-1,4-glucan lyase [2] (1% solution), 3 h in the assay on α-1,4-glucan lyase [2] (2% maltose solution) and 10 to 24 h with α-1,4-glucan lyase [2] (5% solution). The “Elution Efficiency” value in the assay with α-1,4-glucan lyase [3] is given as 56.4%.
